ChEMBL document CHEMBL2016551, “Synthesis and SAR studies of novel heteroaryl fused tetracyclic indole-diamide compounds: potent allosteric inhibitors of the hepatitis C virus NS5B polymerase” (Bioorg Med Chem Lett, 2012)

Assays:
[1] = Inhibition of Hepatitis C virus NS5B RNA-dependent RNA polymerase; set-up: species or system Hepacivirus hominis
[2] = target: RNA-directed RNA polymerase (Hepacivirus hominis, UniProt O39930, P495L); test: Inhibition of Hepatitis C virus NS5B RNA-dependent RNA polymerase P495L mutant
[3] = test system: Hepatitis C virus; test: Antiviral activity against Hepatitis C virus genotype 1b infected in human HuH7 cells by luciferase reporter gene analysis; assay type: functional, organism-based, Hepacivirus hominis; settings: Huh-7
[4] = test system: Hepatitis C virus; test: Antiviral activity against Hepatitis C virus genotype 1a infected in human HuH7 cells by luciferase reporter gene analysis; assay type: functional, organism-based, Hepacivirus hominis; settings: subtype 1a, Huh-7
[5] = Cytotoxicity against human HuH7 cells; assay type: cell-based; settings: Huh-7 cells
[6] = Oral bioavailability in rat; assay type: ADME, organism-based; settings: in vivo
[7] = AUC in rat; assay type: ADME, organism-based; settings: plasma
[8] = Clearance in rat at 2 mg/kg, iv; assay type: ADME, organism-based; set-up: dose 2 mg/kg, route intravenous; settings: in vivo
[9] = Half life in rat at 2 mg/kg, iv; assay type: ADME, organism-based; set-up: dose 2 mg/kg, route intravenous; settings: in vivo

Sequence of RNA-directed RNA polymerase (O39930 entry or part of it P495L): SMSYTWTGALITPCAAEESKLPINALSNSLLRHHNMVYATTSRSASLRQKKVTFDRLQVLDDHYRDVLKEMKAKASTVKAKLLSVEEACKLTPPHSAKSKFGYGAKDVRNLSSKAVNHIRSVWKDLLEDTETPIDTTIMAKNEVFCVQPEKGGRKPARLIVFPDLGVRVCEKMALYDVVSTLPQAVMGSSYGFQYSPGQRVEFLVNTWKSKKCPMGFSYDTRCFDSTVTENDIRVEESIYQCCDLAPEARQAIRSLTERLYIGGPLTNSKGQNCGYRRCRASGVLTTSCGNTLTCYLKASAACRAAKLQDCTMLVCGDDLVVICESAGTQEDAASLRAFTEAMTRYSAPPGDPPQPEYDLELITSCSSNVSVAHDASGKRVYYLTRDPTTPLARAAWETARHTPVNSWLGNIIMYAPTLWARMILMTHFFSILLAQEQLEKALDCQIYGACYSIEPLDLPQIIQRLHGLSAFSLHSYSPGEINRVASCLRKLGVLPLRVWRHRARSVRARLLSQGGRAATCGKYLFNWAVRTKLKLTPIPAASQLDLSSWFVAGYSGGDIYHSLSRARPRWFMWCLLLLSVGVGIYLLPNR

| Compound | IC50 [1] [nM] | IC50 [2] [nM] | EC50 [3] [nM] | EC50 [4] [nM] | CC50 [5] [nM] | bioavailability [6] [%] | AUC [7] [µM·h] | clearance [8] [mL/min/kg] | half-life [9] [h] |
| --- | --- | --- | --- | --- | --- | --- | --- | --- | --- |
| O=C(O)/C=C/c1ccc(NC(=O)C2(NC(=O)c3ccc4c(C5CCCCC5)c5n(c4c3)CCOc3ncccc3-5)CCCC2)cc1 | 14 | 2800 | 21 | 28 | – | – | – | – | – |
| Cc1nc2c(s1)CCCn1c-2c(C2CCCCC2)c2ccc(C(=O)NC3(C(=O)Nc4ccc(/C=C/C(=O)O)cc4)CCCC3)cc21 | 108 | 5100 | 683 | 4190 | – | – | – | – | – |
| O=C(O)/C=C/c1ccc(NC(=O)C2(NC(=O)c3ccc4c(C5CCCCC5)c5n(c4c3)CCCc3ccccc3-5)CCCC2)cc1 | 34 | 3390 | 14 | 71 | 30000 | – | – | – | – |
| O=C(O)/C=C/c1ccc(NC(=O)C2(NC(=O)c3ccc4c(C5CCCCC5)c5n(c4c3)CCCc3ocnc3-5)CCCC2)cc1 | 44 | 5850 | 78 | 380 | – | – | – | – | – |
| O=C(O)/C=C/c1ccc(NC(=O)C2(NC(=O)c3ccc4c(C5CCCCC5)c5n(c4c3)CCCc3nc[nH]c3-5)CCCC2)cc1 | 228 | – | 738 | 2510 | – | – | – | – | – |
| O=C(O)/C=C/c1ccc(NC(=O)C2(NC(=O)c3ccc4c(C5CCCCC5)c5n(c4c3)CCCc3nccnc3-5)CCCC2)cc1 | 24 | 2280 | 24 | 89 | – | – | – | – | – |
| Nc1nc2c(s1)CCCn1c-2c(C2CCCCC2)c2ccc(C(=O)NC3(C(=O)Nc4ccc(/C=C/C(=O)O)cc4)CCCC3)cc21 | 250 | 4840 | 1810 | 3780 | – | – | – | – | – |
| O=C(O)/C=C/c1ccc(NC(=O)C2(NC(=O)c3ccc4c(C5CCCCC5)c5n(c4c3)CCCc3ncccc3-5)CCCC2)cc1 | 30 | 1730 | 9 | 35 | 63000 | 4 | 1.7 | 7.2 | 1 |
| O=C(O)/C=C/c1ccc(NC(=O)C2(NC(=O)c3ccc4c(C5CCCCC5)c5n(c4c3)CCCc3occc3-5)CCCC2)cc1 | 34 | 3720 | < 69 | – | – | – | – | – | – |
| O=C(O)/C=C/c1ccc(NC(=O)C2(NC(=O)c3ccc4c(C5CCCCC5)c5n(c4c3)CC(=O)Nc3cccnc3-5)CCCC2)cc1 | 24 | 3100 | 12 | 39 | 45000 | < 1 | – | 8.7 | – |
| O=C(O)/C=C/c1ccc(NC(=O)C2(NC(=O)c3ccc4c(C5CCCCC5)c5n(c4c3)CCOc3cccnc3-5)CCCC2)cc1 | 15 | > 600 | 22 | 157 | – | – | – | – | – |
